Values quoted from earlier work as cited in patent US20030009042A1, “Method for making hydroxy-25-ene-vitamin D compounds” (Bone Care International, Inc., priority 1998, published 2003).
Where two headings read alike, the source gives them in different places.

How the values were obtained:
[1] = oral, 0.5 μg/day, postmenopausal women
[2] = not given; remark: listed apart in the source

SMILES | intestinal calcium absorption and calcium balance [1] | effects on bone mass or mineral content (dosage levels below 0.5 μg/day) | efficacy in preventing or restoring loss of bone mass or bone mineral content (dosage ranges taught in the '596 Patent) | toxicity, percentage of the patients ([2]; 1 μg/day) | toxicity, percentage of the patients ([2]; 2 μg/day) | efficacy (bone mass) (1 μg/day, Japan, population with low calcium intake) | efficacy in increasing bone mass (two μg/day, patients exhibiting senile osteoporosis)
C=C1/C(=C\C=C2/CCC[C@]3(C)[C@@H]([C@H](C)CCCC(C)(C)O)CC[C@@H]23)C[C@@H](O)C[C@@H]1O [1α,25-dihydroxyvitamin D3] | improved intestinal calcium absorption as well as calcium balance | no effects are observed | at best, modest efficacy | – | – | – | –
C=C1/C(=C\C=C2/CCC[C@]3(C)[C@@H]([C@H](C)CCCC(C)C)CC[C@@H]23)C[C@@H](O)C[C@@H]1O [1α-hydroxyvitamin D3] | – | – | – | approximately 20% | approximately 67% | efficacy is found | found to have efficacy in increasing bone mass
